Experimental data reported in ChEMBL document CHEMBL1268836, “Rational design of novel pyrrolidine derivatives as orally active neurokinin-3 receptor antagonists” (Bioorg Med Chem Lett, 2010).
Values after ≈ are worked out from the molar mass of the structure shown. Active and inactive are the calls of the source. The calls are words filed in the database; no cut-off is given here.

Experiments:
Gerbillinae [1] = test: Antipsychotic activity gerbils assessed as reversal of senktide-induced locomotor activity at 100 mg/kg, po administered before senktide challenge; format: functional, organism-based; parameters: dose 100 mg/kg
Neuromedin-K receptor = biological target: T1, Neuromedin-K receptor (Homo sapiens, UniProt P29371); test: Displacement of [3H]SR142801 from human neurokinin NK3 receptor expressed in HEK293-EBNA cells; format: cell-based
T1 sequence (P29371 whole entry): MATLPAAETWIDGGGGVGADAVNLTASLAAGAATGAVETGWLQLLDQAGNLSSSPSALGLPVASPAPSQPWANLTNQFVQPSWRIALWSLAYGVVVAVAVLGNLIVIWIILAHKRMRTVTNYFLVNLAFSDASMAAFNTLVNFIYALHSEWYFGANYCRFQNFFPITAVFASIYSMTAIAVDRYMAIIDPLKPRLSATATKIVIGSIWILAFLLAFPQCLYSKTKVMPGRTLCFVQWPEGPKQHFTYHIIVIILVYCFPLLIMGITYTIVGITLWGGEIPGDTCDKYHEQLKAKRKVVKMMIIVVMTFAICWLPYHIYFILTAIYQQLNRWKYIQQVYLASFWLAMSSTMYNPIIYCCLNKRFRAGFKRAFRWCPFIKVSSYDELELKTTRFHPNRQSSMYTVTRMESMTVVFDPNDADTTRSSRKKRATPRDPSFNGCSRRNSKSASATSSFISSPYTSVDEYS

[2] = Lipophilicity, log D of the compound; format: physicochemical; conditions: octanol/water
[3] = Ratio of drug level in brain to plasma in gerbils at 30 mg/kg, po; format: ADME, organism-based; parameters: dose 30 mg/kg, route oral; conditions: gerbillinae, read-out: BPR
Gerbillinae [4] = test: Antipsychotic activity gerbils assessed as reversal of senktide-induced locomotor activity at 30 mg/kg, po administered before senktide challenge; format: functional, organism-based; parameters: dose 30 mg/kg
[5] = Aqueous solubility of the compound; format: physicochemical
Substance-P receptor = Substance-P receptor (Homo sapiens, UniProt P25103); test: Displacement of [3H]substance P from human neurokinin NK1 receptor expressed in CHO cell; format: cell-based
Chain of Substance-P receptor (P25103 whole entry): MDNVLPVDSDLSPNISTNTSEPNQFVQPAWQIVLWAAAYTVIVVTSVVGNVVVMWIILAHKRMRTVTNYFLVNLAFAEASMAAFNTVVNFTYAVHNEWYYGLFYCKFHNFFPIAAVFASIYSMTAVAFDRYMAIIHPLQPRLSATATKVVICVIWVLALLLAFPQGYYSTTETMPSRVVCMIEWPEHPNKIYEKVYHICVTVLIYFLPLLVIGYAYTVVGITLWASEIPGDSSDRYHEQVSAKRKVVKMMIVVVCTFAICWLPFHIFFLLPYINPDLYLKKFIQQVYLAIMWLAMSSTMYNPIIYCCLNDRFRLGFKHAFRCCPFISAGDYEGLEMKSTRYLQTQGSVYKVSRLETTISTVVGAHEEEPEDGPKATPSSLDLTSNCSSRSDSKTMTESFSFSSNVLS

CC(=O)N(C)C1(c2ccccc2)CCN(CCC[C@]2(c3ccc(Cl)c(Cl)c3)CCCN(C(=O)c3ccccc3)C2)CC1
Activity (Gerbillinae [1]): Active

CS(=O)(=O)N1CCN(C(=O)N2C[C@H](NC(=O)c3cc(C(F)(F)F)cc(C(F)(F)F)c3)[C@@H](c3ccccc3)C2)CC1 (racemic)
Ki (Neuromedin-K receptor; hek293-ebna): Not Active

CN(C(=O)Cc1cc(C(F)(F)F)cc(C(F)(F)F)c1)[C@H]1CN(C(=O)N2CCN(S(C)(=O)=O)CC2)C[C@@H]1c1ccccc1 (racemic)
Ki (Neuromedin-K receptor; hek293-ebna): Not Active

CN(C(=O)c1cc(C(F)(F)F)cc(C(F)(F)F)c1)[C@H]1CN(C(=O)N2CCN(S(C)(=O)=O)CC2)C[C@@H]1c1ccccc1 (racemic)
Ki (Neuromedin-K receptor; hek293-ebna): Not Active

CN(C)CCN1CCN(C(=O)N2C[C@H](c3ccc(Cl)c(Cl)c3)[C@@H](N(C)Cc3ccc(C(F)(F)F)c(F)c3)C2)CC1
logD [2]: 2.9 | Kp [3]: 1.6 | Activity (Gerbillinae [4]): Active | solubility [5]: 495 µg/mL (≈ 819 µM)

CN(C(=O)C(C)(C)c1cc(C(F)(F)F)cc(C(F)(F)F)c1)[C@H]1CN(C(=O)N(CCO)CCO)C[C@@H]1c1ccc(F)cc1 (racemic)
Ki (Substance-P receptor): 1.1 nM | Ki (Neuromedin-K receptor; read-out: Ki): 192 nM

CN(Cc1ccc(C(F)(F)F)c(F)c1)[C@H]1CN(C(=O)N2CCN(S(C)(=O)=O)CC2)C[C@@H]1c1ccc(Cl)c(Cl)c1 (racemic)
logD [2]: > 4 | solubility [5]: < 1 µg/mL

CN(C(=O)C(C)(C)c1cc(C(F)(F)F)cc(C(F)(F)F)c1)[C@H]1CN(Cc2ccccc2)C[C@@H]1c1ccc(F)cc1 (racemic)
Ki (Neuromedin-K receptor; hek293-ebna): Not Active

CN(C(=O)C(C)(C)c1cc(C(F)(F)F)cc(C(F)(F)F)c1)[C@H]1CN(C(=O)NCCO)C[C@@H]1c1ccc(F)cc1 (racemic)
Ki (Substance-P receptor): 0.6 nM | Ki (Neuromedin-K receptor; read-out: Ki): 298 nM

CN(Cc1cc(C(F)(F)F)cc(C(F)(F)F)c1)[C@H]1CN(C(=O)N2CCN(S(C)(=O)=O)CC2)C[C@@H]1c1ccccc1 (racemic)
Ki (Neuromedin-K receptor; read-out: Ki): 1300 nM

CN(C(=O)C(C)(C)c1cc(C(F)(F)F)cc(C(F)(F)F)c1)[C@H]1CNC[C@@H]1c1ccc(F)cc1 (racemic)
Ki (Substance-P receptor): 0.9 nM | Ki (Neuromedin-K receptor; hek293-ebna): Not Active

CN(CC(C)(C)c1cc(C(F)(F)F)cc(C(F)(F)F)c1)[C@H]1CN(C(=O)N2CCN(S(C)(=O)=O)CC2)C[C@@H]1c1ccccc1 (racemic)
Ki (Neuromedin-K receptor; hek293-ebna): Not Active

CN(C(=O)C(C)(C)c1cc(C(F)(F)F)cc(C(F)(F)F)c1)[C@H]1CN(C(=O)N2CCN(S(C)(=O)=O)CC2)C[C@@H]1c1ccccc1 (racemic)
Ki (Neuromedin-K receptor; read-out: Ki): 100 nM

CN(C(=O)C(C)(C)c1cc(C(F)(F)F)cc(C(F)(F)F)c1)[C@H]1CN(C(=O)N2CCN(S(C)(=O)=O)CC2)C[C@@H]1c1ccc(F)cc1 (racemic)
Ki (Substance-P receptor): 2.1 nM | Ki (Neuromedin-K receptor; read-out: Ki): 165 nM

CC(=O)N1CCN(C(=O)N2C[C@H](c3ccc(F)cc3)[C@@H](N(C)C(=O)C(C)(C)c3cc(C(F)(F)F)cc(C(F)(F)F)c3)C2)CC1 (racemic)
Ki (Substance-P receptor): 1.4 nM | Ki (Neuromedin-K receptor; read-out: Ki): 370 nM

CN(CCc1cc(C(F)(F)F)cc(C(F)(F)F)c1)[C@H]1CN(C(=O)N2CCN(S(C)(=O)=O)CC2)C[C@@H]1c1ccccc1 (racemic)
Ki (Neuromedin-K receptor; hek293-ebna): Not Active
